Test results published in ChEMBL document CHEMBL6087472, “Development and Discovery of a Selective Degrader of Casein Kinases 1 δ/ε” (J Med Chem, 2025).
Activity calls are given as the source filed them. No cut-off for these calls is given here.

How the values were obtained:
[1] = target: T1, von Hippel-Lindau disease tumor suppressor/Casein kinase I isoform delta (Homo sapiens, UniProt P48730+P40337); test: PROTAC activity at VHL/Hibit-fused CK1 delta in human MV4-11 cells assessed as degradation of CK1-delta incubated for 6 hrs by Nano-Glo HiBiT assay relative to control; assay type: cell-based
Target sequence in this assay (P40337 whole entry, looked up, the tested form may be a part, canonical isoform): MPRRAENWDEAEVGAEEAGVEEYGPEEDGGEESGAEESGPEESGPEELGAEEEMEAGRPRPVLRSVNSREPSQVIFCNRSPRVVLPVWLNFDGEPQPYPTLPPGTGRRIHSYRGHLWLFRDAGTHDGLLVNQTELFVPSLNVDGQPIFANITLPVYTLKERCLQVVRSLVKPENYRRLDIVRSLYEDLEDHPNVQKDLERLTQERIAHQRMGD
Target sequence in this assay (P48730 whole entry, looked up, the tested form may be a part, canonical isoform): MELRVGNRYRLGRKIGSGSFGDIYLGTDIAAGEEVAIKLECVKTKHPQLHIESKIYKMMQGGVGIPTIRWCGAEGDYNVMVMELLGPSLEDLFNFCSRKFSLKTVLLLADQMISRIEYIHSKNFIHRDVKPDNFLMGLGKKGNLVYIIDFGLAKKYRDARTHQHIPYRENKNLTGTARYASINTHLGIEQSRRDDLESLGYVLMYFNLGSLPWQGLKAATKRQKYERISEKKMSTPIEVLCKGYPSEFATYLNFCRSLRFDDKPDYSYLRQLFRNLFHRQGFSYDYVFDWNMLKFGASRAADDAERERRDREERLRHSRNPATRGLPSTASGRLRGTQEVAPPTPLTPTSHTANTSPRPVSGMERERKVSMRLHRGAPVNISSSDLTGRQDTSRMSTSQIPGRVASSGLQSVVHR

[2] = target: T1, von Hippel-Lindau disease tumor suppressor/Casein kinase I isoform delta; test: PROTAC activity at VHL/full length N-terminal Nano-luc fused CK1 delta (unknown origin) transfected in HEK293T cells incubated for 2 hrs followed by substrate addition by NanoBRET target engagement assay; assay type: cell-based
Target sequence in this assay (P40337 whole entry, looked up, the tested form may be a part, canonical isoform): as the sequence (P40337 whole entry, looked up, the tested form may be a part, canonical isoform) above
Target sequence in this assay (P48730 whole entry, looked up, the tested form may be a part, canonical isoform): as the sequence (P48730 whole entry, looked up, the tested form may be a part, canonical isoform) above

[3] = target: T2, von Hippel-Lindau disease tumor suppressor/Casein kinase I isoform alpha (Homo sapiens) (UniProt P48729+P40337); test: PROTAC activity at VHL/Hibit-fused CK1 alpha in human MV4-11 cells assessed as degradation of CK1-alpha incubated for 6 hrs by Nano-Glo HiBiT assay relative to control; assay type: cell-based
[4] = target: T3, Protein cereblon/Casein kinase I isoform delta (Homo sapiens, UniProt P48730+Q96SW2); test: PROTAC activity at CRBN/full length N-terminal Nano-luc fused CK1 delta (unknown origin) transfected in HEK293T cells incubated for 2 hrs followed by substrate addition by NanoBRET target engagement assay; assay type: cell-based
Target sequence in this assay (P48730 whole entry, the tested form may be a part, canonical isoform): as the sequence (P48730 whole entry, looked up, the tested form may be a part, canonical isoform) above
Target sequence in this assay (Q96SW2 whole entry, the tested form may be a part, canonical isoform): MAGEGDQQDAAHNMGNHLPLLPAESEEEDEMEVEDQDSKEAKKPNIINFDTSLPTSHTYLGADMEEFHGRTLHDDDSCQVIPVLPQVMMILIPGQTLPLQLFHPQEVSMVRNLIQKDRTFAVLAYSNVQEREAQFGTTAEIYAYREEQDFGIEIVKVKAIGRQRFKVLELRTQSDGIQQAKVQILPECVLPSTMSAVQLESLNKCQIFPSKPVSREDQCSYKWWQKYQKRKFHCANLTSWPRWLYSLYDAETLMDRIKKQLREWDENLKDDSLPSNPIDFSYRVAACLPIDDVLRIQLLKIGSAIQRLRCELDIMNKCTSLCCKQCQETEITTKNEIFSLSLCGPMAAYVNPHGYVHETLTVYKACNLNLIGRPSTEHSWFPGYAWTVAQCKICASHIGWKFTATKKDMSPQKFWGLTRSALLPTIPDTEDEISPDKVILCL

[5] = target: Cereblon/Casein kinase I alpha (Homo sapiens) (UniProt P48729+Q96SW2); test: PROTAC activity at CRBN/Hibit-fused CK1 alpha in human MV4-11 cells assessed as degradation of CK1-alpha incubated for 6 hrs by Nano-Glo HiBiT assay relative to control; assay type: cell-based
[6] = target: T3, Protein cereblon/Casein kinase I isoform delta; test: PROTAC activity at CRBN/Hibit-fused CK1 delta in human MV4-11 cells assessed as degradation of CK1-delta incubated for 6 hrs by Nano-Glo HiBiT assay relative to control; assay type: cell-based
Target sequence in this assay (P48730 whole entry, looked up, the tested form may be a part, canonical isoform): as the sequence (P48730 whole entry, looked up, the tested form may be a part, canonical isoform) above
Target sequence in this assay (Q96SW2 whole entry, looked up, the tested form may be a part, canonical isoform): as the sequence (Q96SW2 whole entry, the tested form may be a part, canonical isoform) above

[7] = target: T4, Casein kinase I isoform epsilon (Homo sapiens, UniProt P49674); test: Inhibition of CK1 epsilon in HEK293 cells at 5 to 10 uM measured after 6 hrs by Western blot analysis; assay type: cell-based; details: dose 5-10 µM
[8] = target: Casein kinase I isoform delta (Homo sapiens) (UniProt P48730); test: Inhibition of CK1 delta in HEK293 cells at 5 to 10 uM measured after 6 hrs by Western blot analysis; assay type: cell-based; details: dose 5-10 µM
[9] = target: T3, Protein cereblon/Casein kinase I isoform delta; test: PROTAC activity at CRBN/Hibit-fused CK1 delta in human MV4-11 cells assessed as degradation of CK1-delta at 10 nM incubated for 6 hrs by Nano-Glo HiBiT assay; assay type: cell-based
Target sequence in this assay (P48730 whole entry, looked up, the tested form may be a part, canonical isoform): as the sequence (P48730 whole entry, looked up, the tested form may be a part, canonical isoform) above
Target sequence in this assay (Q96SW2 whole entry, looked up, the tested form may be a part, canonical isoform): as the sequence (Q96SW2 whole entry, the tested form may be a part, canonical isoform) above

MV4-11 [10] = test: Cytotoxicity in human MV4-11 cells at 10 uM measured after 72 hrs by alamar blue assay; assay type: functional, cell-based
[11] = target: T5, von Hippel-Lindau disease tumor suppressor/Casein kinase I isoform epsilon (Homo sapiens) (UniProt P49674+P40337); test: PROTAC activity at VHL/CK1 epsilon in HEK293 cells assessed as induction of degradation of CK1 epsilon at 0.01 to 30 uM by Western blot analysis; assay type: cell-based; details: dose 0.01-30 µM
[12] = target: T1, von Hippel-Lindau disease tumor suppressor/Casein kinase I isoform delta; test: PROTAC activity at VHL/CK1 delta in HEK293 cells assessed as induction of degradation of CK1 delta at upto 20 uM pretreated with LGK974 followed by compound addition and measured after 6 hrs by Western blot analysis; assay type: cell-based
Target sequence in this assay (P40337 whole entry, looked up, the tested form may be a part, canonical isoform): as the sequence (P40337 whole entry, looked up, the tested form may be a part, canonical isoform) above
Target sequence in this assay (P48730 whole entry, looked up, the tested form may be a part, canonical isoform): as the sequence (P48730 whole entry, looked up, the tested form may be a part, canonical isoform) above

[13] = target: T1, von Hippel-Lindau disease tumor suppressor/Casein kinase I isoform delta; test: PROTAC activity at VHL/CK1 delta in HEK293 cells assessed as dephosphorylation of DVL3 at high concentration pretreated with LGK974 followed by compound addition and measured after 6 hrs by Western blot analysis; assay type: cell-based
Target sequence in this assay (P40337 whole entry, looked up, the tested form may be a part, canonical isoform): as the sequence (P40337 whole entry, looked up, the tested form may be a part, canonical isoform) above
Target sequence in this assay (P48730 whole entry, looked up, the tested form may be a part, canonical isoform): as the sequence (P48730 whole entry, looked up, the tested form may be a part, canonical isoform) above

[14] = target: T2, von Hippel-Lindau disease tumor suppressor/Casein kinase I isoform alpha (Homo sapiens); test: PROTAC activity at VHL/CK1 alpha in HEK293 cells assessed as induction of degradation of CK1 alpha at >10 uM by Western blot analysis; assay type: cell-based
[15] = target: T5, von Hippel-Lindau disease tumor suppressor/Casein kinase I isoform epsilon (Homo sapiens); test: PROTAC activity at VHL/CK1 epsilon in HEK293 cells assessed as dephosphorylation of DVL3 at high concentration pretreated with LGK974 followed by compound addition and measured after 6 hrs by Western blot analysis; assay type: cell-based
[16] = target: T5, von Hippel-Lindau disease tumor suppressor/Casein kinase I isoform epsilon (Homo sapiens); test: PROTAC activity at VHL/CK1 epsilon in HEK293 cells assessed as induction of degradation of CK1 epsilon at upto 20 uM pretreated with LGK974 followed by compound addition and measured after 6 hrs by Western blot analysis; assay type: cell-based
[17] = target: T1, von Hippel-Lindau disease tumor suppressor/Casein kinase I isoform delta; test: PROTAC activity at VHL/CK1 delta in HEK293 cells assessed as induction of degradation of CK1 delta by Western blot analysis; assay type: cell-based
[18] = target: T4, Casein kinase I isoform epsilon; test: Inhibition of CK1 epsilon (unknown origin)
MV4-11 [19] = test: Cytotoxicity in human MV4-11 cells at <5 uM measured after 60 hrs by alamar blue assay; assay type: functional, cell-based
[20] = Bioavailability in mouse; assay type: ADME, organism-based; details: in vivo
[21] = target: T1, von Hippel-Lindau disease tumor suppressor/Casein kinase I isoform delta; test: PROTAC activity at VHL/Hibit-fused CK1 delta in human MV4-11 cells assessed as degradation of CK1-delta incubated for 6 hrs by Nano-Glo HiBiT assay; assay type: cell-based
[22] = target: T2, von Hippel-Lindau disease tumor suppressor/Casein kinase I isoform alpha (Homo sapiens); test: PROTAC activity at VHL/CK1 alpha in HEK293 cells assessed as induction of degradation of CK1 alpha by measuring maximum efficacy at 5 to 10 uM measured after 6 hrs by Western blot analysis relative to control; assay type: cell-based; details: dose 5-10 µM
[23] = target: T5, von Hippel-Lindau disease tumor suppressor/Casein kinase I isoform epsilon (Homo sapiens); test: PROTAC activity at VHL/CK1 epsilon in HEK293 cells assessed as induction of degradation of CK1 epsilon by measuring maximum efficacy at 5 to 10 uM measured after 6 hrs by Western blot analysis relative to control; assay type: cell-based; details: dose 5-10 µM
[24] = target: T1, von Hippel-Lindau disease tumor suppressor/Casein kinase I isoform delta; test: PROTAC activity at VHL/CK1 delta in HEK293 cells assessed as induction of degradation of CK1 delta by measuring maximum efficacy at 5 to 10 uM measured after 6 hrs by Western blot analysis relative to control; assay type: cell-based; details: dose 5-10 µM
Target sequence in this assay (P40337 whole entry, looked up, the tested form may be a part, canonical isoform): as the sequence (P40337 whole entry, looked up, the tested form may be a part, canonical isoform) above
Target sequence in this assay (P48730 whole entry, looked up, the tested form may be a part, canonical isoform): as the sequence (P48730 whole entry, looked up, the tested form may be a part, canonical isoform) above

T5 sequence (P40337 whole entry, looked up, canonical isoform): as the sequence (P40337 whole entry, looked up, the tested form may be a part, canonical isoform) above
T5 sequence (P49674 whole entry, looked up, canonical isoform): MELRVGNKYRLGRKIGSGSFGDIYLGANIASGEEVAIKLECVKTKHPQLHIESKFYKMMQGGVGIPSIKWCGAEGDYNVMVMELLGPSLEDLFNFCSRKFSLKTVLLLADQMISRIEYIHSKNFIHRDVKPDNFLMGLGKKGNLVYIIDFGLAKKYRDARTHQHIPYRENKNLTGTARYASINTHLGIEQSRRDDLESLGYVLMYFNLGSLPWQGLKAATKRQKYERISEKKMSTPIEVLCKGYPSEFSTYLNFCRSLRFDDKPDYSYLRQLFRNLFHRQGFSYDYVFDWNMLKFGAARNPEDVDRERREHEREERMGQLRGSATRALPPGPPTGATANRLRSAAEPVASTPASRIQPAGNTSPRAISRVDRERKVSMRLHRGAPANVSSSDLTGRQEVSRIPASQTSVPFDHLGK
T2 sequence (P40337 whole entry, looked up, the tested form may be a part, canonical isoform): as the sequence (P40337 whole entry, looked up, the tested form may be a part, canonical isoform) above
T2 sequence (P48729 whole entry, looked up, the tested form may be a part, canonical isoform): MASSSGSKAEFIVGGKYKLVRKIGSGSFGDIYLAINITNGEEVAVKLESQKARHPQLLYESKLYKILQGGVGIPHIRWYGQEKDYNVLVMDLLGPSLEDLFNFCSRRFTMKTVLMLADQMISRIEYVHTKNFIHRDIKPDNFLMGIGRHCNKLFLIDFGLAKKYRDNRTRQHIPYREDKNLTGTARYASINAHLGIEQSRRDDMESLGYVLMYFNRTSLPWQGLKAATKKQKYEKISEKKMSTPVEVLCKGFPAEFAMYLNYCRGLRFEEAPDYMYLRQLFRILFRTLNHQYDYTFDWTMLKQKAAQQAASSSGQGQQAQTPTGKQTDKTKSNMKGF
Cereblon/Casein kinase I alpha (Homo sapiens), sequence (P48729 2-337 limits assumed): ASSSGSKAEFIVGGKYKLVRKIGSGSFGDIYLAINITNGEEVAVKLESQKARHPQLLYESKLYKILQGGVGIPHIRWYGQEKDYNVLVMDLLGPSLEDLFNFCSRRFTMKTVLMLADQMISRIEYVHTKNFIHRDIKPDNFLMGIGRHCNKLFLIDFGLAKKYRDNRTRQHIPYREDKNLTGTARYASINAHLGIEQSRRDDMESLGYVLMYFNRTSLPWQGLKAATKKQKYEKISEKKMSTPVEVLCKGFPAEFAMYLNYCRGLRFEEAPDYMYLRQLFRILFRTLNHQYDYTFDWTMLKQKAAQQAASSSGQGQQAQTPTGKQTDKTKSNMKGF
Cereblon/Casein kinase I alpha (Homo sapiens), sequence (Q96SW2 whole entry partner, the tested form may be a part, canonical isoform): as the sequence (Q96SW2 whole entry, the tested form may be a part, canonical isoform) above

Row | Structure (SMILES) | Emax [1] [%] | Emax [2] [%] | Emax [3] [%] | EC50 [4] [nM] | Emax [5] [%] | Emax [6] [%] | other results
1 | O=C(COc1cccc2c1C(=O)N(C1CCC(=O)NC1=O)C2=O)NCCCCCC(=O)N1CCC(F)(Cn2cnc(-c3ccc(F)cn3)c2-c2ccnc3[nH]ccc23)CC1 (stereo unspecified) | – | – | – | 9.3 | < 10 | 18.2 | –
2 | O=C1CCC(N2C(=O)c3cccc(OCCCCCCN4CCC(F)(Cn5cnc(-c6ccc(F)cn6)c5-c5ccnc6[nH]ccc56)CC4)c3C2=O)C(=O)N1 (stereo unspecified) | – | – | – | 1.5 | – | 15 | inhibition [7]: Active; inhibition [8]: Active
3 | Cc1ncsc1-c1ccc(CNC(=O)[C@@H]2C[C@@H](O)CN2C(=O)[C@@H](NC(=O)CC2CCN(C(=O)CCOCCOCCOCCN3CCC(F)(Cn4cnc(-c5ccc(F)cn5)c4-c4ccnc5[nH]ccc45)CC3)CC2)C(C)(C)C)cc1 | < 10 | 3.2 | < 10 | – | – | – | –
4 | O=C(COc1cccc2c1C(=O)N(C1CCC(=O)NC1=O)C2=O)NCc1ccc(CC(=O)N2CCC(F)(Cn3cnc(-c4ccc(F)cn4)c3-c3ccnc4[nH]ccc34)CC2)cc1 (stereo unspecified) | – | – | – | 4.6 | 19.7 | 14.8 | –
5 | Cc1ncsc1-c1ccc(CNC(=O)[C@@H]2C[C@H](O)CN2C(=O)[C@@H](NC(=O)CCCCCCC(=O)N2CCC(F)(Cn3cnc(-c4ccc(F)cn4)c3-c3ccnc4[nH]ccc34)CC2)C(C)(C)C)cc1 | < 10 | 2.4 | < 10 | – | – | – | Activity (MV4-11 [10]): Active; Compound Showed Milder Cytotoxic Effect; Activity [11]: Weak_effect; Activity [12]: inactive; Activity [13]: Active; Activity [14]: Weak_effect; Activity [15]: Active; Activity [16]: inactive; DC50 [17]: 200 nM
6 | Cc1ncsc1-c1ccc(CNC(=O)[C@@H]2C[C@@H](O)CN2C(=O)[C@@H](NC(=O)CC2CN(C(=O)CCOCCOCCOCCN3CCC(F)(Cn4cnc(-c5ccc(F)cn5)c4-c4ccnc5[nH]ccc45)CC3)C2)C(C)(C)C)cc1 | < 10 | 6.4 | < 10 | – | – | – | –
7 | CN1CCC(F)(Cn2cnc(-c3ccc(F)cn3)c2-c2ccnc3[nH]ccc23)CC1 | – | – | – | – | – | – | IC50 [18]: 27.7 nM; Activity (MV4-11 [19]): Active; bioavailability [20]: 0.57%
8 | Cc1ncsc1-c1ccc(CNC(=O)[C@@H]2C[C@@H](O)CN2C(=O)[C@@H](NC(=O)CC2CN(C(=O)CCOCCOCCN3CCC(F)(Cn4cnc(-c5ccc(F)cn5)c4-c4ccnc5[nH]ccc45)CC3)C2)C(C)(C)C)cc1 | < 10 | 6.3 | < 10 | – | – | – | –
9 | Cc1ncsc1-c1ccc(CNC(=O)[C@@H]2C[C@@H](O)CN2C(=O)[C@@H](NC(=O)CCOCCOCCN2CCC(F)(Cn3cnc(-c4ccc(F)cn4)c3-c3ccnc4[nH]ccc34)CC2)C(C)(C)C)cc1 | 50.8 | 1.8 | 17.3 | – | – | – | DC50 [21]: 9270 nM; Emax [22]: > 50%; Emax [23]: > 50%; Emax [24]: > 50%
10 | O=C1CCC(N2C(=O)c3cccc(NCCCCCC(=O)N4CCC(F)(Cn5cnc(-c6ccc(F)cn6)c5-c5ccnc6[nH]ccc56)CC4)c3C2=O)C(=O)N1 (stereo unspecified) | – | – | – | 4.3 | < 10 | 35 | Activity [9]: Active
11 | O=C1CCC(N2C(=O)c3cccc(NCCOCCOCCOCCC(=O)N4CCC(F)(Cn5cnc(-c6ccc(F)cn6)c5-c5ccnc6[nH]ccc56)CC4)c3C2=O)C(=O)N1 (stereo unspecified) | – | – | – | 467 | 16.1 | 34.4 | –
12 | O=C(CCOCCOCCOCCOCCN1CCC(F)(Cn2cnc(-c3ccc(F)cn3)c2-c2ccnc3[nH]ccc23)CC1)NCCNc1cccc2c1C(=O)N(C1CCC(=O)NC1=O)C2=O (stereo unspecified) | – | – | – | 11.2 | 11.3 | 40.2 | Activity [9]: Active
13 | O=C(COc1cccc2c1C(=O)N(C1CCC(=O)NC1=O)C2=O)NCCOCCOCCOCCC(=O)N1CCC(F)(Cn2cnc(-c3ccc(F)cn3)c2-c2ccnc3[nH]ccc23)CC1 (stereo unspecified) | – | – | – | 16 | 12.6 | < 10 | –
14 | Cc1ncsc1-c1ccc(CNC(=O)[C@@H]2C[C@@H](O)CN2C(=O)[C@@H](NC(=O)Cc2ccc(CNC(=O)CN3CCC(F)(Cn4cnc(-c5ccc(F)cn5)c4-c4ccnc5[nH]ccc45)CC3)cc2)C(C)(C)C)cc1 | 19.1 | 0.5 | < 10 | – | – | – | –

The next lines start with results.

Row | Emax [1] [%] | Emax [2] [%] | Emax [3] [%] | EC50 [4] [nM] | Emax [5] [%] | Emax [6] [%] | Structure (SMILES) | other results
15 | < 10 | 2.8 | < 10 | – | – | – | Cc1ncsc1-c1ccc(CNC(=O)[C@@H]2C[C@@H](O)CN2C(=O)[C@@H](NC(=O)CCOCCOCCOCCOCCN2CCC(F)(Cn3cnc(-c4ccc(F)cn4)c3-c3ccnc4[nH]ccc34)CC2)C(C)(C)C)cc1 | –
16 | – | – | – | 9.2 | < 10 | 14.4 | O=C1CCC(N2C(=O)c3cccc(NCc4ccc(CC(=O)N5CCC(F)(Cn6cnc(-c7ccc(F)cn7)c6-c6ccnc7[nH]ccc67)CC5)cc4)c3C2=O)C(=O)N1 (stereo unspecified) | –
17 | 21.7 | 2.4 | < 10 | – | – | – | Cc1ncsc1-c1ccc(CNC(=O)[C@@H]2C[C@@H](O)CN2C(=O)[C@@H](NC(=O)CC2CN(C(=O)CN3CCC(F)(Cn4cnc(-c5ccc(F)cn5)c4-c4ccnc5[nH]ccc45)CC3)C2)C(C)(C)C)cc1 | –
18 | – | – | – | 9.3 | 25 | 36.4 | O=C(CCOCCOCCN1CCC(F)(Cn2cnc(-c3ccc(F)cn3)c2-c2ccnc3[nH]ccc23)CC1)NCCNc1cccc2c1C(=O)N(C1CCC(=O)NC1=O)C2=O (stereo unspecified) | Activity [9]: Active
19 | 29.1 | 2 | < 10 | – | – | – | Cc1ncsc1-c1ccc(CNC(=O)[C@@H]2C[C@@H](O)CN2C(=O)[C@@H](NC(=O)CC2CCN(C(=O)CN3CCC(F)(Cn4cnc(-c5ccc(F)cn5)c4-c4ccnc5[nH]ccc45)CC3)CC2)C(C)(C)C)cc1 | –
20 | – | – | – | 7.7 | 20.2 | 36 | O=C(CCOCCOCCOCCN1CCC(F)(Cn2cnc(-c3ccc(F)cn3)c2-c2ccnc3[nH]ccc23)CC1)NCCNc1cccc2c1C(=O)N(C1CCC(=O)NC1=O)C2=O (stereo unspecified) | Activity [9]: Active
21 | 35 | 4.3 | 35.9 | – | – | – | Cc1ncsc1-c1ccc(CNC(=O)[C@@H]2C[C@@H](O)CN2C(=O)[C@@H](NC(=O)CCOCCOCCOCCN2CCC(F)(Cn3cnc(-c4ccc(F)cn4)c3-c3ccnc4[nH]ccc34)CC2)C(C)(C)C)cc1 | Activity (MV4-11 [19]): Active
